Test results reported in US8455485B2, “Pyrazolo pyridine derivatives as NADPH oxidase inhibitors” (Genkyotex SA, priority 2008, dated 2013).

What was measured:
Assay type in all cases: cell-based, human
[1] = tested on: NOX activities; test: Chemiluminescence (luminol) measurement of ROS in cells
Method: ROS was measured using the chemiluminescent probe luminol. Cells were cultured and plated as for Amplex Red except that the Amplex Red agent was replaced by 10 μg/mL luminol (Sigma 09235). Light emission was recorded continuously at 37° C. for 60 minutes using the luminescence function of the FluoStar Optima fluorescent plate reader. The mean of the four blank values was subtracted from each corrected value for each time point. NOX activities were expressed as % of the activity in control cells. Residual activity of DPI-treated cells was usually <10%.

[2] = tested on: NOX activities; test: H2DCF-DA (DCF fluorescence) ROS measurement in TGF-β stimulated HUVEC
Method: HUVEC are cultured in endothelial basal medium supplemented with hydrocortisone (1 μg/mL, CalbioChem), bovine brain extract (12 μg/mL), gentamicin (50 μg/mL, CalbioChem), amphotericin B (50 ng/mL, CalBioChem EGF (10 ng/mL, and 10% FCS until the fourth passage. When the fifth passage was started, cells were cultured with a lower concentration of FCS (2%) in the absence of EGF, if not indicated otherwise. All experiments were done with cells of the fifth passage. The cells were incubated with OxLDL (oxidized low-density lipoprotein) or its buffer as control for 24 h, before detection of O2^− formation.
HUVEC were plated on coverslips and made quiescent overnight in 0.5% BSA before stimulation with TGF-β. Cells were loaded for 10 minutes with 5 μM CM-H2DCFDA in phenol-red-free medium in the dark and then treated with TGF-β (R&D Systems) in the presence or absence of compounds according to the invention. Cells were then visualized by immunofluorescence microscopy after fixation and staining of the nuclei with DAPI or examined live using confocal microscopy. DCF fluorescence was visualized at an excitation wavelength of 488 nm and emission at 515 to 540 nm. […] For calculation, the absorbance at […] was normalized to absorbance at […] for each individual well. […] NOX activities were expressed as % of the activity in control cells. […]

[3] = tested on: NOX activities; test: Nitroblue tetrazolium (NBT) test of intracellular and extracellular superoxide in cells; conditions: DPI at a final concentration of 10 μM
Method: Intracellular and extracellular superoxide was measured by a colorimetric technique using a quantitative nitroblue tetrazolium (NBT) test. SOD-inhibitable conversion of NBT to formazan, a fine blue precipitate, in the presence of superoxide anion was measured using Fluostar Optima spectrometer (BMG labtech). Following incubation with appropriate stimuli, cells were trypsinized (1× Trypsin-EDTA), collected by centrifugation, and washed with PBS to remove medium. 5×10^5 cells were plated on 48-well plates and incubated in Hank's balanced salt solution containing 0.5 mg/mL NBT with or without 800 U/mL SOD in the presence or absence of compounds according to the invention. As a control, DPI was included at a final concentration of 10 μM. After 2.5 h, cells were fixed and washed with methanol to remove non reduced NBT. The reduced formazan was then dissolved in 230 μl of 2M potassium hydroxide and in 280 μl of dimethylsulfoxide. The absorption was measured at 630 nm. For calculation, the absorbance at 630 nm was normalized for each individual well. The mean of the four blank values was subtracted from each corrected value for each time point. NOX activities were expressed as % of the activity in control cells. Residual activity of DPI-treated cells was usually <10%.

[4] = tested on: NOX activity; test: Amplex Red measurement of extracellular hydrogen peroxide (NOX activity) using DMSO-differentiated HL60 cells; conditions: for Inhibition (%) of NOX activity: Amplex red, DMSO-differentiated HL60 cells, compound concentration not stated
Method: Human acute myeloid leukemia cell line HL-60 was cultured in RPMI 1640 (Invitrogen) supplemented with 10% heat-inactivated calf serum, 2 mM glutamine, 100 U/mL penicillin (Sigma), and 100 μg streptomycin (Sigma) at 37° C. under a humidified atmosphere of 5% CO2. HL60 differentiation to the neutrophil phenotype was triggered by adding Me2SO (final concentration 1.25% v/v for 6 days) to the culture medium.
Extracellular hydrogen peroxide was measured using Amplex UltraRed (Molecular Probes). Cells were trypsinized (1× Trypsin-EDTA), collected by centrifugation, and resuspended in HBSS supplemented with 1% glucose. Cells were seeded into black 96-well plates at a density of 50′000 cells in 200 μl testing buffer (HBSS 1% glucose containing 0.005 U/mL horseradish peroxidase (Roche) and 50 μM Amplex Red in the presence or absence of compounds according to the invention. As a control, DPI was included at a final concentration of 10 μM The plates were placed in the fluorescent Optima Fluorescent plate reader and kept at 37° C. during 20 min Fluorescence was measured for […] with excitation and emission wavelengths of 544 nm and 590 nm respectively. NOX activities were expressed as % of the activity in control cells. Residual activity of DPI-treated cells was usually <10%.
The Table 2 below summarizes the percentage of inhibition of NOX activity as measured by Amplex red using DMSO-differentiated HL60 cells as described above: […]

Row | SMILES | Inhibition (%) of NOX activity [4] [%] | also measured
1 | c1ccc([I+]c2ccccc2)cc1 [DPI, Diphenyl-iodonium] | – | Residual activity of DPI-treated cells (NOX activity as % of the activity in control cells) [1]: < 10%; Residual activity of DPI-treated cells (NOX activity as % of the activity in control cells) [2]: < 10%; Residual activity of DPI-treated cells (NOX activity as % of the activity in control cells) [3]: < 10%; Residual activity of DPI-treated cells (NOX activity as % of the activity in control cells) ([4]; Amplex Red, DPI at a final concentration of 10 μM): < 10%
2 | CC(=O)Nc1cccc(Cn2c(CN3CCCC3)c3c(=O)n(-c4ccc(OCc5ccccc5)cc4)[nH]c3cc2=O)c1 [Compound 53, N-[3-({2-[4-(benzyloxy)phenyl]-3,6-dioxo-4-(pyrrolidin-1-ylmethyl)-1,2,3,6-tetrahydro-5H-pyrazolo[4,3-c]pyridin-5-yl}methyl)phenyl] acetamide] | 86 | –
3 | CCN(CC)CCCn1c(COCc2ccccc2)c2c(=O)n(-c3ccccc3Cl)[nH]c2cc1=O [Compound 102, 4-[(benzyloxy)methyl]-2-(2-chlorophenyl)-5-[3-(diethylamino)propyl]-1H-pyrazolo[4,3-c] pyridine-3,6(2H,5H)-dione] | 80 | –
4 | O=c1c2c(COCc3ccccc3)n(Cc3cnccn3)c(=O)cc2[nH]n1-c1ccccc1Cl [Compound 113, 4-[(benzyloxy)methyl]-2-(2-chlorophenyl)-5-(pyrazin-2-yl-methyl)-1H-pyrazolo[4,3-c]pyridine-3,6(2H,5H)-dione] | 87 | –
5 | O=c1c2c(COCc3ccccc3)n(CC3CCCNC3)c(=O)cc2[nH]n1-c1ccccc1Cl (centres unmarked) [Compound 130, 4-[(benzyloxy)methyl]-2-(2-chlorophenyl)-5-(piperidin-3-ylmethyl)-1H-pyrazolo[4,3-c] pyridine-3,6(2H,5H)-dione] | 80 | –
6 | Cn1[nH]c2cc(=O)n(Cc3ccc(Cl)cc3)c(CN3CCCC3)c2c1=O [Compound 52, 5-(4-chlorobenzyl)-2-methyl-4-(pyrrolidin-1-ylmethyl)-1H-pyrazolo[4,3-c]pyridine-3,6(2H,5H)-dione] | 90 | –
7 | CCCCc1c2c(=O)n(-c3ccc(F)cc3Cl)[nH]c2cc(=O)n1CCOC [Compound 9, 4-butyl-2-(2-chloro-4-fluorophenyl)-5-(2-methoxyethyl)-1H-pyrazolo[4,3-c]pyridine-3,6(2H,5H)-dione] | 76 | –
8 | CN(Cc1cccnc1)Cc1c2c(=O)n(-c3ccccc3Cl)[nH]c2cc(=O)n1C [Compound 147, 2-(2-chlorophenyl)-5-methyl-4-{[methyl (pyridin-3-ylmethyl)amino]methyl}-1H-pyrazolo[4,3-c] pyridine-3,6(2H,5H)-dione] | 80 | –
